In patent publication US5869499A, “Benzyloxyquinuclidines as substance P antagonists” (Pfizer Inc, priority 1993, dated 1999):
Counter-ions that a name gives are not always drawn.

System: plasma protein extravasation in the ureter in response to capsaicin
Test: Capsaicin-induced plasma extravasation test
Assay type: in vivo, male Hartley guinea pigs
Settings: dosed orally 1 h before capsaicin challenge, guinea pig ureter
Description: In this test, antiinflammatory activity is determined as the percent inhibition of plasma protein extravasation in the ureter of male Hartley quinea pigs (weighing 300-350 g) in response to the intraperitoneal injection of capsaicin into anesthetized animals. The compounds of the present invention are dissolved in 0.1% methyl cellulose/water and dosed orally 1 h before capsaicin challenge. Evans Blue dye (30 mg/kg) is administered intravenously 5 min before capsaicin challenge. The animals are killed 10 min after capsaicin injection and both right and left ureters are removed. The Evans Blue dye is extracted and determined […]. In the above tests, compounds are considered active if the difference in response between the drug-treated animals and a control group receiving the vehicle alone is statistically significant.

| Compound | ED50 relative to ED50 of non-substituted compound (x) | ED50 (Cavia porcellus, po) |
| --- | --- | --- |
| O=C(O)[C@@H]1CN2CC[C@H]1[C@H](OCc1cc(C(F)(F)F)cc(C(F)(F)F)c1)[C@@H]2C(c1ccccc1)c1ccccc1 [Example 2, (3S,4R,5S,6S)-3,5-bis(trifluoromethyl)benzyoxy)-6-diphenylmethyl-5-(-1-azabicyclo[2.2.2]octane-3-carboxylic acid hydrochloride] | more than 100 times lower |  |
| FC(F)(F)c1cc(CO[C@H]2C3CCN(CC3)[C@H]2C(c2ccccc2)c2ccccc2)cc(C(F)(F)F)c1 [compound (x)] |  | 2.4 mg/kg |
